Test results taken from patent publication US4572895A, “Process for preparing an antibiotic complex by culturing actinomyces strain ATCC 39417” (priority 1985, dated 1986).
In brackets after ≈: the same amount, converted by molar mass. Like-named read-outs stand apart in the source and are kept apart here.

How the values were obtained:
[1] = tested on: Staphylococcus aureus 209P; assay: MIC, serial two-fold agar dilution; type: cell-based; details: nutrient agar
[2] = tested on: Staphylococcus aureus Smith; assay: MIC, serial two-fold agar dilution; type: cell-based; details: nutrient agar
[3] = tested on: Bacillus subtilis PCI 219; assay: MIC, serial two-fold agar dilution; type: cell-based; details: PCI219, nutrient agar
[4] = tested on: Micrococcus luteus PCI 1001; assay: MIC, serial two-fold agar dilution; type: cell-based; details: PCI1001, nutrient agar
Micrococcus flavus D12 = assay: MIC, serial two-fold agar dilution; type: cell-based; details: nutrient agar
Escherichia coli NIHJ = assay: MIC, serial two-fold agar dilution; type: cell-based; details: nutrient agar
[5] = tested on: Klebsiella pneumoniae D11; assay: MIC, serial two-fold agar dilution; type: cell-based; details: nutrient agar
[6] = tested on: Pseudomonas aeruginosa D15; assay: MIC, serial two-fold agar dilution; type: cell-based; details: nutrient agar
[7] = tested on: Candida albicans IAM 4888; assay: MIC, serial two-fold agar dilution; type: cell-based; details: IAM4888, Sabouraud agar
[8] = tested on: Cryptococcus neoformans D49; assay: MIC, serial two-fold agar dilution; type: cell-based; details: Sabouraud agar
[9] = tested on: Aspergillus fumigatus IAM 2530; assay: MIC, serial two-fold agar dilution; type: cell-based; details: IAM2530, Sabouraud agar
[10] = tested on: Trichophyton mentagrophytes D155; assay: MIC, serial two-fold agar dilution; type: cell-based; details: Sabouraud agar
Clostridium difficile = assay: MIC, serial two-fold agar dilution; type: cell-based; details: Clostridioides difficile; GAM agar, anaerobe
[11] = tested on: gram-negative bacteria and fungi; assay: antibacterial/antifungal activity (MIC), summary; type: cell-based
[12] = tested on: P388, L1210 and B16 tumors; assay: antitumor activity in mice, summary over P388, L1210 and B16; type: in vivo, BDF1 mice; details: experimental mouse tumors
solubility = type: physicochemical; details: acidic water
[13] = tested on: aerobic gram-positive bacteria and anaerobic bacteria; assay: antibacterial activity, summary; type: cell-based
Text: Nutrient agar medium was used for gram-positive and gram-negative bacteria, GAM agar medium for anaerobes and Sabouraud agar medium for fungi.

Bacteroides fragilis = assay: MIC, serial two-fold agar dilution; type: cell-based; details: GAM agar, anaerobe
Clostridium perfringens = assay: microbe, parasite or virus in culture; type: cell-based
Propionibacterium acnes = assay: MIC, serial two-fold agar dilution; type: cell-based; details: Cutibacterium acnes; GAM agar, anaerobe
[14] = tested on: lymphocytic leukemia P388; details: qd 1→9
lymphoid leukemia L1210 [15] = details: qd 1→9
melanotic melanoma B16 [16] = details: qd 1→9
melanotic melanoma B16 [17] = assay: antitumor activity, B16 melanoma in mice; details: qd 1→9
[18] = tested on: lymphocytic leukemia P388; assay: antitumor activity, P388 leukemia in mice; details: qd 1→9
lymphoid leukemia L1210 [19] = assay: antitumor activity, L1210 leukemia in mice; details: qd 1→9

`Cc1ccc2oc(=O)c3c(O)c4cccc(O[C@@H]5O[C@H](C)[C@H](O)[C@](C)(O)[C@H]5O)c4c4oc(=O)c1c2c34` [BBM-2478B] gave an MIC [1] of 3.1 µg/mL (≈ 6.27 µM), an MIC [2] of 6.3 µg/mL (≈ 12.7 µM) and an MIC [3] of 0.8 µg/mL (≈ 1.62 µM). The MIC [4] was 3.1 µg/mL (≈ 6.27 µM), the MIC (Micrococcus flavus D12) was 1.6 µg/mL (≈ 3.24 µM) and the MIC (Escherichia coli NIHJ) was greater than 100 µg/mL. The MIC [5] was greater than 100 µg/mL, the MIC [6] was greater than 100 µg/mL and the MIC [7] was greater than 100 µg/mL. The MIC [8] was greater than 100 µg/mL, the MIC [9] was greater than 100 µg/mL and the MIC [10] was greater than 100 µg/mL. The MIC (Clostridium difficile) was 25 µg/mL (≈ 50.6 µM), the “activity against gram-negative bacteria and fungi” value [11] was “inactive” and the antitumor activity [12] was “devoid of antitumor activity”. The “solubility in acidic water” value (solubility) was “insoluble” and the antibacterial activity [13] was “potent antibacterial activity”.

In the case of `CO[C@H]1[C@@H](O)[C@@H](C)O[C@H](O[C@H]2[C@H](Oc3cccc4c(O)c5c(=O)oc6ccc(C)c7c(=O)oc(c34)c5c67)O[C@H](C)[C@H](O)[C@@H]2O)[C@@H]1O` [Chartreusin, reference compound], the MIC [1] is reported as 3.1 µg/mL (≈ 4.84 µM), the MIC [2] is reported as 6.3 µg/mL (≈ 9.83 µM) and the MIC [3] is reported as 0.4 µg/mL (≈ 0.624 µM). It also gave an MIC [4] of 0.8 µg/mL (≈ 1.25 µM), an MIC (Micrococcus flavus D12) of 0.4 µg/mL (≈ 0.624 µM) and an MIC (Escherichia coli NIHJ) greater than 100 µg/mL. For the same compound, the MIC [5] was greater than 100 µg/mL, the MIC [6] was greater than 100 µg/mL and the MIC [7] was greater than 100 µg/mL. The MIC [8] was greater than 100 µg/mL, the MIC [9] was greater than 100 µg/mL and the MIC [10] was greater than 100 µg/mL. It also gave an MIC (Bacteroides fragilis) of 6.3 µg/mL (≈ 9.83 µM), an MIC (Clostridium perfringens) of 1.6 µg/mL (≈ 2.5 µM) and an MIC (Propionibacterium acnes) of 3.1 µg/mL (≈ 4.84 µM). The “activity against gram-negative bacteria and fungi” value [11] was “inactive”, the MST ([14]; 0.1 mg/kg/day ip) was 9.0 days and the MST ([14]; 0.3 mg/kg/day ip) was 10.5 days. For the same compound, the MST ([14]; 10 mg/kg/day ip) was 19.5 days, the MST (lymphoid leukemia L1210 [15]; 0.1 mg/kg/day ip) was 8.0 days and the MST (lymphoid leukemia L1210 [15]; 0.3 mg/kg/day ip) was 8.0 days. For the same compound, the MST (lymphoid leukemia L1210 [15]; 1 mg/kg/day ip) was 9.0 days, the MST (lymphoid leukemia L1210 [15]; 3 mg/kg/day ip) was 9.0 days and the MST (lymphoid leukemia L1210 [15]; 10 mg/kg/day ip) was 11.5 days. The MST (melanotic melanoma B16 [16]; 0.3 mg/kg/day ip) was 14.0 days, the MST (melanotic melanoma B16 [16]; 1 mg/kg/day ip) was 16.0 days and the MST (melanotic melanoma B16 [16]; 3 mg/kg/day ip) was 20.5 days. The MST (melanotic melanoma B16 [16]; 10 mg/kg/day ip) was 25.0 days, the “Average wt. change on day 5” value (melanotic melanoma B16 [17]; 0.3 mg/kg/day ip) was “+1.8 g” and the “Survivors on day 5” value (melanotic melanoma B16 [17]; 0.3 mg/kg/day ip) was 6/6. For the same compound, the “Survivors on day 45” value (melanotic melanoma B16 [17]; 0.3 mg/kg/day ip) was 0/6, the T/C (melanotic melanoma B16 [17]; 0.3 mg/kg/day ip) was 100% and the “Average wt. change on day 5” value (melanotic melanoma B16 [17]; 1 mg/kg/day ip) was “+2.3 g”. For the same compound, the “Survivors on day 5” value (melanotic melanoma B16 [17]; 1 mg/kg/day ip) was 6/6, the T/C (melanotic melanoma B16 [17]; 1 mg/kg/day ip) was 114% and the “Average wt. change on day 5” value (melanotic melanoma B16 [17]; 3 mg/kg/day ip) was “+2.3 g”. The “Survivors on day 5” value (melanotic melanoma B16 [17]; 3 mg/kg/day ip) was 6/6, the “Survivors on day 45” value (melanotic melanoma B16 [17]; 3 mg/kg/day ip) was 0/6 and the “Average wt. change on day 5” value (melanotic melanoma B16 [17]; 10 mg/kg/day ip) was “+1.7 g”. For the same compound, the “Survivors on day 5” value (melanotic melanoma B16 [17]; 10 mg/kg/day ip) was 6/6, the “Survivors on day 45” value (melanotic melanoma B16 [17]; 10 mg/kg/day ip) was 0/6 and the “Average wt. change on day 5” value ([18]; 0.1 mg/kg/day ip) was “+2.8 g”. For the same compound, the “Survivors on day 5” value ([18]; 0.1 mg/kg/day ip) was 6/6, the “Survivors on day 45” value ([18]; 0.1 mg/kg/day ip) was 0/6 and the T/C ([18]; 0.1 mg/kg/day ip) was 100%. For the same compound, the “Average wt. change on day 5” value ([18]; 0.3 mg/kg/day ip) was “+2.0 g”, the “Survivors on day 5” value ([18]; 0.3 mg/kg/day ip) was 6/6 and the “Survivors on day 45” value ([18]; 0.3 mg/kg/day ip) was 0/6. The T/C ([18]; 0.3 mg/kg/day ip) was 117%, the “Average wt. change on day 5” value ([18]; 1 mg/kg/day ip) was “+1.3 g” and the MST ([18]; 1 mg/kg/day ip) was 14.0 days. For the same compound, the “Survivors on day 5” value ([18]; 1 mg/kg/day ip) was 6/6, the “Survivors on day 45” value ([18]; 1 mg/kg/day ip) was 0/6 and the “Average wt. change on day 5” value ([18]; 3 mg/kg/day ip) was “+1.5 g”. For the same compound, the MST ([18]; 3 mg/kg/day ip) was 15.0 days, the “Survivors on day 5” value ([18]; 3 mg/kg/day ip) was 6/6 and the “Survivors on day 45” value ([18]; 3 mg/kg/day ip) was 0/6. The “Average wt. change on day 5” value ([18]; 10 mg/kg/day ip) was “+1.3 g”, the “Survivors on day 5” value ([18]; 10 mg/kg/day ip) was 6/6 and the “Survivors on day 45” value ([18]; 10 mg/kg/day ip) was 0/6. For the same compound, the “Average wt. change on day 5” value (lymphoid leukemia L1210 [19]; 0.1 mg/kg/day ip) was “+3.1 g”, the “Survivors on day 5” value (lymphoid leukemia L1210 [19]; 0.1 mg/kg/day ip) was 6/6 and the “Survivors on day 45” value (lymphoid leukemia L1210 [19]; 0.1 mg/kg/day ip) was 0/6. For the same compound, the T/C (lymphoid leukemia L1210 [19]; 0.1 mg/kg/day ip) was 100%, the “Average wt. change on day 5” value (lymphoid leukemia L1210 [19]; 0.3 mg/kg/day ip) was “+3.2 g” and the “Survivors on day 5” value (lymphoid leukemia L1210 [19]; 0.3 mg/kg/day ip) was 6/6. For the same compound, the “Survivors on day 45” value (lymphoid leukemia L1210 [19]; 0.3 mg/kg/day ip) was 0/6, the T/C (lymphoid leukemia L1210 [19]; 0.3 mg/kg/day ip) was 100% and the “Average wt. change on day 5” value (lymphoid leukemia L1210 [19]; 1 mg/kg/day ip) was “+1.9 g”. For the same compound, the “Survivors on day 5” value (lymphoid leukemia L1210 [19]; 1 mg/kg/day ip) was 6/6, the “Survivors on day 45” value (lymphoid leukemia L1210 [19]; 1 mg/kg/day ip) was 0/6 and the T/C (lymphoid leukemia L1210 [19]; 1 mg/kg/day ip) was 113%. The “Average wt. change on day 5” value (lymphoid leukemia L1210 [19]; 3 mg/kg/day ip) was “+1.4 g”, the “Survivors on day 5” value (lymphoid leukemia L1210 [19]; 3 mg/kg/day ip) was 6/6 and the “Survivors on day 45” value (lymphoid leukemia L1210 [19]; 3 mg/kg/day ip) was 0/6. The T/C (lymphoid leukemia L1210 [19]; 3 mg/kg/day ip) was 113%, the “Average wt. change on day 5” value (lymphoid leukemia L1210 [19]; 10 mg/kg/day ip) was “+1.3 g” and the “Survivors on day 5” value (lymphoid leukemia L1210 [19]; 10 mg/kg/day ip) was 6/6. The “Survivors on day 45” value (lymphoid leukemia L1210 [19]; 10 mg/kg/day ip) was 0/6.
